Measured values taken from patent US20170100396A1 (priority 2015, published 2017).

tested on: not listed separately; assay: in vitro; settings: dog

`O=C(NCCc1ccccc1)c1c[nH]c2ncc(C3CC3)nc12` and `N#Cc1cccc(CNC(=O)[C@H](NC(=O)c2c[nH]c3ncc(C4CC4)nc23)C2CC2)c1` cannot be ordered by CC50: over 100 µM for the first, over 50 µM for the second.

`O=C(N[C@@H](C(=O)NCc1ccc(Cl)cc1Cl)C1CC1)c1c[nH]c2ncc(C3CC3)nc12` and `COC(=O)c1cccc(CNC(=O)[C@H](NC(=O)c2c[nH]c3ncc(C4CC4)nc23)C2CC2)c1` cannot be ordered by CC50: over 12.5 µM for the first, 63.9 µM for the second.

target: PB2 cap binding domain (PB2-CBD) (residues 318-483) (Influenza A virus (A/duck/Shantou/4610/2003(H5N1)), UniProt Q2LG68); assay: not given; design: species or system avian influenza strain A/duck/Shantou/4610/2003(H5N1); settings: not given

In the case of `CC(C)c1cnc2[nH]cc(C(=O)NCC(C)(C)C)c2n1`, the “Fp (result in words)” value is reported as “No displacement”.
In the case of `O=C(NCC1CC1)c1c[nH]c2ncc(-c3ccccc3Cl)nc12`, the “Fp (result in words)” value is reported as “No displacement”.
For `CS(=O)(=O)c1cccc(CNC(=O)c2c[nH]c3ncc(-c4ccccc4Cl)nc23)c1`, the “Fp (result in words)” value was “No displacement”.

tested on: influenza A virus (IAV) A/Aichi/2/68 (H3N2); assay: microbe, parasite or virus in culture; assay type: cell-based, influenza A virus in MDCK cells; settings: Influenza A virus, H3N2, MDCK, 48 h, read-out: CPE IC50

Going from `O=C(NCCc1ccccc1)c1c[nH]c2ncc(C3CC3)nc12` to `O=C(N[C@@H](C(=O)NCCc1ccccc1)C1CC1)c1c[nH]c2ncc(C3CC3)nc12`, the IC50 rises from 66.9 µM to over 100 µM.

Going from `O=C(N[C@@H](C(=O)NCc1ccc(Cl)cc1Cl)C1CC1)c1c[nH]c2ncc(C3CC3)nc12` to `O=C(N[C@@H](C(=O)NCc1ccc(Cl)cc1)C1CC1)c1c[nH]c2ncc(C3CC3)nc12`, the IC50 falls from 11.2 µM to 2.99 µM (3.7-fold). The second is the more potent here.

Compared with `N#Cc1cccc(CNC(=O)[C@H](NC(=O)c2c[nH]c3ncc(C4CC4)nc23)C2CC2)c1`, `COC(=O)c1cccc(CNC(=O)[C@H](NC(=O)c2c[nH]c3ncc(C4CC4)nc23)C2CC2)c1` is 2.6-fold lower in IC50: 12.4 µM for the first, 4.8 µM for the second.

First: O=C(N[C@@H](C(=O)N1CCN(Cc2ccccc2)CC1)C1CC1)c1c[nH]c2ncc(C3CC3)nc12
Second: O=C(N[C@@H](C(=O)N1CCc2ccccc2C1)C1CC1)c1c[nH]c2ncc(C3CC3)nc12
The IC50 of the first is lower: 41.9 µM for the first, over 100 µM for the second. The first is the more potent here.

`O=C(N[C@@H](C(=O)NCCC(=O)N1CCCC1)C1CC1)c1c[nH]c2ncc(C3CC3)nc12` and `O=C(N[C@@H](C(=O)N1CCCC1)C1CC1)c1c[nH]c2ncc(C3CC3)nc12` cannot be ordered by IC50: over 100 µM for the first, over 25 µM for the second.

`CC(C)c1cnc2[nH]cc(C(=O)NCC(F)(F)F)c2n1` and `CC(C)c1cnc2[nH]cc(C(=O)NCC(C)(C)C)c2n1` cannot be ordered by IC50: over 50 µM for the first, 52.2 µM for the second.

Going from `CC(C)c1cnc2[nH]cc(C(=O)NC3CCCCC3O)c2n1` (centres unmarked) to `CC(C)c1cnc2[nH]cc(C(=O)NC3CCOC3(C)C)c2n1` (centres unmarked), the IC50 rises from 11.3 µM to over 100 µM. The first is the more potent here.

`CC(C)C[C@@H](NC(=O)c1c[nH]c2ncc(C3CC3)nc12)C(=O)NCC(=O)NC1CCCC1` and `COC(=O)C1CC2(CC(NC(=O)[C@@H](CC(C)C)NC(=O)c3c[nH]c4ncc(C5CC5)nc34)C2)C1` (some centres unmarked) cannot be ordered by IC50: over 100 µM for the first, over 100 µM for the second.

Molecule `O=C(N[C@@H](C(=O)NCC(=O)N1CCOCC1)C1CC1)c1c[nH]c2ncc(C3CC3)nc12` has an IC50 of over 100 µM.

same assay, conditions: Influenza A virus, H3N2, read-out: % CPE reduction

In order of rising inhibition at 50 µM:
1. O=C(N[C@@H](C(=O)N1CC[C@@H](O)C1)C1CCCCC1)c1c[nH]c2ncc(C3CC3)nc12  -14.8%
2. O=C(N[C@@H](C(=O)N1CCC(CO)C1)C1CCCCC1)c1c[nH]c2ncc(C3CC3)nc12 (some centres unmarked)  -10.1%
3. O=C(N[C@@H](C(=O)NCc1ccncc1)C1CCCCC1)c1c[nH]c2ncc(C3CC3)nc12  -8.3%
4. O=C(N[C@@H](C(=O)NCc1ccncn1)C1CCCCC1)c1c[nH]c2ncc(C3CC3)nc12  -2.2%
5. O=C(O)c1cccc(CNC(=O)[C@H](NC(=O)c2c[nH]c3ncc(C4CC4)nc23)C2CC2)c1  -0.2%
6. O=C(N[C@@H](C(=O)NCc1cccnc1)C1CC1)c1c[nH]c2ncc(C3CC3)nc12  6.6%
7. O=C(N[C@@H](C(=O)N[C@H]1CC[C@H](C(=O)O)CC1)C1CCCCC1)c1c[nH]c2ncc(C3CC3)nc12  14.8%
8. CC(C)C[C@@H](NC(=O)c1c[nH]c2ncc(C3CC3)nc12)C(=O)NCC(=O)Nc1ccccc1  25%
9. O=C(NCC(=O)N1CCCC1)c1c[nH]c2ncc(C3CC3)nc12  36.2%

In order of rising inhibition at 5 µM:
1. NC(=O)C(NC(=O)c1c[nH]c2ncc(C3CC3)nc12)c1ccc(OC(F)(F)F)cc1 (centres unmarked)  -12.9%
2. CC(C)C(NC(=O)c1c[nH]c2ncc(C3CC3)nc12)C(N)=O (centres unmarked)  -10.7%
3. COC(=O)C1CCN(C(=O)[C@H](NC(=O)c2c[nH]c3ncc(C4CC4)nc23)C2CCCCC2)C1 (some centres unmarked)  -8.1%
4. O=C(N[C@@H](C(=O)NCc1ccccc1)C1CCCCC1)c1c[nH]c2ncc(C3CC3)nc12  -2.2%
5. CCOC(=O)C1(c2cccc(-c3cnc4[nH]cc(C(=O)NC(C)C)c4n3)c2)CC1  -0.5%
6. CC(NC(=O)[C@H](NC(=O)c1c[nH]c2ncc(C3CC3)nc12)C1CC1)c1ccccc1 (some centres unmarked)  2.7%
7. O=C(N[C@@H](C(=O)N1CCC(C(=O)O)C1)C1CCCCC1)c1c[nH]c2ncc(C3CC3)nc12 (some centres unmarked)  11.6%
8. O=C(N[C@@H](C(=O)NCC1CCOCC1)C1CCCCC1)c1c[nH]c2ncc(C3CC3)nc12  20.5%

Molecule `CC(C)NC(=O)c1c[nH]c2ncc(-c3ccc(C4(C(=O)O)CC4)cc3)nc12` has an inhibition at 25 µM of -8.7%.

For `COc1ccc(C(C)(C)CNC(=O)c2c[nH]c3ncc(C4CC4)nc23)cc1OC`, the inhibition at 2.5 µM was 15.8%.

same assay, conditions: Influenza A virus, H3N2, read-out: CPE IC50

`CS(=O)(=O)c1cccc(CNC(=O)c2c[nH]c3ncc(-c4ccccc4Cl)nc23)c1` showed an IC50 of 22.5 µM.
